From patent publication US11571483B2, “E2F reporter melanoma cells” (THOMAS JEFFERSON UNIVERSITY, priority 2015, dated 2023)

Tests used:
1205Lu xenografts = test: 1205Lu reporter xenograft model, tumor volume / response; type: in vivo, immunodeficient nude mice
Excerpt: (§1) FIG. 7 A depicts the E2F reporter system for measuring the efficacy of CDK4/6 and MEK inhibitors in vivo. Firefly luciferase is expressed under the control of E2F response elements. […] CR=complete response. FIG. 7D depicts analysis of E2F reporter activity normalized to tdTomato fluorescent protein activity in 1205Lu xenografts. […] CR=complete response. FIG. 7G depicts representative images of 1205Lu xenografts taken from mice fed vehicle, MEK inhibitor, CDK4/6 inhibitor and combo-laced chow analyzed for Ki67. FIG. 7H depicts quantitation of Ki67 positive cells (% of total cells) taken from mice fed vehicle (n=2), MEK inhibitor (n=4), CDK4/6 inhibitor (n=4) and combo laced chow (n=4).
(§2) Indeed, in a performed xenograft mouse model, 1205Lu reporter cells were intradermally injected into immunodeficient nude mice.
(§3) Mice were retreated with combination regimen at day 67. FIG. 9B depicts modulation of E2F activity in combination treated mice following drug removal and retreatment. […] FIG. 9C depicts RPPA analysis on resistant tumors.

E2F [1] = test: E2F reporter activity in 1205Lu xenografts (luciferase normalized to tdTomato); type: in vivo, immunodeficient nude mice; conditions: drug-laced chow
Excerpt: as §1, §2, §3

E2F [2] = test: E2F reporter assay in vitro (firefly luciferase normalized to actin); type: cell-based, human; conditions: 1205Lu reporter cells; palbociclib (0.5 μM), 48 hours
Excerpt: CR=complete response. […] CR=complete response.
Tumor cells were also transduced with tdTomato fluorescent protein to selectively monitor tumor growth. […] In FIG. 8 1205Lu reporter cells were transfected with silencing RNA to control sequence, CDK4, CDK6 or both CDK4 and CDK6. […] Firefly luciferase activity was normalized to actin levels in each sample.

Row | SMILES | complete regressions (1205Lu xenografts; MEK inhibitor chow (mouse #6)) | tumor regrowth on treatment (1205Lu xenografts; by treatment day 44) | tumor volume, initial response (1205Lu xenografts; drug-laced chow) | E2F reporter activity in tumors on treatment (E2F [1]) | reduction in firefly luciferase activity normalized to actin levels (E2F [2])
1 | O=C(NOC[C@H](O)CO)c1ccc(F)c(F)c1Nc1ccc(I)cc1F [PD0325901] | one complete regression | dramatic tumor regrowth | initially maintained tumor volumes at a static level | strong E2F reactivation | 
2 | CC(=O)c1c(C)c2cnc(Nc3ccc(N4CCNCC4)cn3)nc2n(C2CCCC2)c1=O [palbociclib] |  |  |  |  | 60%
